# Measured values published in patent US12559506B2, “Indazole based compounds and associated methods of use” (Arvinas Operations, Inc., priority 2021, dated 2026).
# Like-named read-outs stand apart in the source and are kept apart here.
# Biological target: T1, LRRK2 (endogenous, HiBit tagged) (Homo sapiens, UniProt Q5S007)
# T1 construct: endogenous in cells; host or cells: HEK293 cells with HiBit knock-in at the endogenous LRRK2 locus, stably expressing firefly luciferase
# Assay: Endogenous LRRK2 degradation assay, endogenous gene C-terminally HiBit-tagged in HEK293 cells (Nano-Glo Dual Luciferase)
# Format: cell-based
# Procedure, shortened: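 LRRK2-HiBit quantified via Nano-Glo Dual Luciferase in HEK293 knock-in cells co-expressing firefly luciferase, after 24 h exposure to compound (1 μM final top, 1:3, 11 points). Values normalised to DMSO median per plate and curve-fitted; Alamar Blue viability run alongside.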
# [1] = endogenous HiBit-tagged LRRK2 in HEK293 cells, 24 hours treatment, read-out: Endogenous WT DC50
# [2] = endogenous HiBit-tagged LRRK2 in HEK293 cells, 24 hours treatment, read-out: Endogenous WT Dmax
# [3] = endogenous HiBit-tagged LRRK2 in HEK293 cells, 24 hours treatment, read-out: **Endogenous WT Dmax (%)
# [4] = endogenous HiBit-tagged LRRK2 in HEK293 cells, 24 hours treatment, read-out: *Endogenous WT DC50
# T1 sequence (Q5S007 whole entry): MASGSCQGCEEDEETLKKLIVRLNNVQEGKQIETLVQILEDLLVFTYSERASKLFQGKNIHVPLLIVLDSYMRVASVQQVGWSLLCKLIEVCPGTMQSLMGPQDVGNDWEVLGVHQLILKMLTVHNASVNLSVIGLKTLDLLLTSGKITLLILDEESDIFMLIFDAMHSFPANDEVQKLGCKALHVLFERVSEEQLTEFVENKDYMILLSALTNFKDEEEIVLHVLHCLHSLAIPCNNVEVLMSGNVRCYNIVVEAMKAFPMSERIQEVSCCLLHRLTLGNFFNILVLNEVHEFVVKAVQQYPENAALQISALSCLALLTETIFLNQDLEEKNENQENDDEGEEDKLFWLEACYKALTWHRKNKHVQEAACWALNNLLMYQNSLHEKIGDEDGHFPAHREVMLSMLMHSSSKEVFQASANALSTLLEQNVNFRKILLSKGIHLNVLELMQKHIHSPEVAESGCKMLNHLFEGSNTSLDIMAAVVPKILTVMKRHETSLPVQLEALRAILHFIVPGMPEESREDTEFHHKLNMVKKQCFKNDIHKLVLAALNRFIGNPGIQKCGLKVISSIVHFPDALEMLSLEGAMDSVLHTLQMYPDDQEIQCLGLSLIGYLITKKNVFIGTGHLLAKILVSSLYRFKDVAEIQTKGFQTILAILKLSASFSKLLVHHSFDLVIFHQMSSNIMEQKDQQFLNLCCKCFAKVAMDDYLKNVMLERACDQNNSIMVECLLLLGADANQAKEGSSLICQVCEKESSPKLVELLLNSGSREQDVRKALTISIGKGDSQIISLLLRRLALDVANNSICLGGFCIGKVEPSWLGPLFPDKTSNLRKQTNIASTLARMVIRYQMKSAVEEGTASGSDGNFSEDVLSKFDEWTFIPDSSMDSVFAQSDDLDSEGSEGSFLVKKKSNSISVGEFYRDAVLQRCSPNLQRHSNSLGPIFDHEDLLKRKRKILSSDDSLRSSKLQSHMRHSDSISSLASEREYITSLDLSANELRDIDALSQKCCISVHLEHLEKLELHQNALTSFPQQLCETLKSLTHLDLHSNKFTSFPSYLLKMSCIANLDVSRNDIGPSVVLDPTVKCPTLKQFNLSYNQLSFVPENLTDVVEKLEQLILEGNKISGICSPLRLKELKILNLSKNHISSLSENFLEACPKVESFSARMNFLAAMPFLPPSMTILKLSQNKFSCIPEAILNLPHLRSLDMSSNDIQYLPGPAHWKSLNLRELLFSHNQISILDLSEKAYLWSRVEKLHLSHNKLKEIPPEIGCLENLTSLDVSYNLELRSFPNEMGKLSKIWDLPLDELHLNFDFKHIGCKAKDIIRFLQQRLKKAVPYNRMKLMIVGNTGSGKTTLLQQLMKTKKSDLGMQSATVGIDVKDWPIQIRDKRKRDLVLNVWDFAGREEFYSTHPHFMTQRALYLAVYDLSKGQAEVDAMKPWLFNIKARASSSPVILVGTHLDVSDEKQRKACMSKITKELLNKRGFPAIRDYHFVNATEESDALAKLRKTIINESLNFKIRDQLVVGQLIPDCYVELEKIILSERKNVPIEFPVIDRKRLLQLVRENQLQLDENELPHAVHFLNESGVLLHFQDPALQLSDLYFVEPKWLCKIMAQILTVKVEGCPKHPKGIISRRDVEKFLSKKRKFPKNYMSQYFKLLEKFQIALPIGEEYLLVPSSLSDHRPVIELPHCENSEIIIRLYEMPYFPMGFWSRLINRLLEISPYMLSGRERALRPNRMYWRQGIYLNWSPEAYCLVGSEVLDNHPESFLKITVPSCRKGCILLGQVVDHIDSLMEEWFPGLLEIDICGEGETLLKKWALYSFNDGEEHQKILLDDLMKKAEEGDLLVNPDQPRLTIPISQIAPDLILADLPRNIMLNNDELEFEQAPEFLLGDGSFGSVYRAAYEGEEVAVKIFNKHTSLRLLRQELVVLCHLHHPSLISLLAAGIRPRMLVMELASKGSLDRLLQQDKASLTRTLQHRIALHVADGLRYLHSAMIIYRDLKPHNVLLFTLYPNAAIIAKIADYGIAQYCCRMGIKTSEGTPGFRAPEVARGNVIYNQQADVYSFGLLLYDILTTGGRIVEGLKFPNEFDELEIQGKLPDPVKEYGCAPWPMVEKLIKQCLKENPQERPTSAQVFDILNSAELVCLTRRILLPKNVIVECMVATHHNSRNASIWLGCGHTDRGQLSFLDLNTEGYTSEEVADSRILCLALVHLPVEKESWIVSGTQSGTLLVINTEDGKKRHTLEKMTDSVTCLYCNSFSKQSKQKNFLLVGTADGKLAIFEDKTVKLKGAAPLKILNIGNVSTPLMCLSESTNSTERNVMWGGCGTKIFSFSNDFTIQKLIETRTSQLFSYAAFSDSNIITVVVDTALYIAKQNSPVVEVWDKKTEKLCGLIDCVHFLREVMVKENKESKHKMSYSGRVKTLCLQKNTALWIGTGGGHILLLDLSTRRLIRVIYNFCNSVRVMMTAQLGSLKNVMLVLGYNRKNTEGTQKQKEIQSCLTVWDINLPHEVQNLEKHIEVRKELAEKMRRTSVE
compound,measurement,setting,value
"C[C@H]1CN(c2cc(-c3[nH]nc4ccc(OC5(C)CC5)cc34)ncn2)CCN1CCN1CCC(C(=O)N2CCN(c3ccc4c(c3)C(=O)N(C3CCC(=O)NC3=O)C4=O)CC2)CC1 (stereo partly drawn) [Compound 58, 2-(2,6-dioxopiperidin-3-yl)-5-[4-(1-{2-[(2S)-2-methyl-4-{6-[5-(1-methylcyclopropoxy)-2H-indazol-3-yl]pyrimidin-4-yl}piperazin-1-yl]ethyl}piperidine-4-carbonyl)piperazin-1-yl]-2,3-dihydro-1H-isoindole-1,3-dione]",Dmax,"endogenous HiBit-tagged LRRK2 in HEK293 cells, 24 hours, read-out: **Endogenous WT Dmax (%)",50 to 70%
same,DC50,"endogenous HiBit-tagged LRRK2 in HEK293 cells, 24 hours, read-out: *Endogenous WT DC50",< 10 nM
"COc1c(N2CCC(O[C@H]3CC[C@H](CN4CCN(c5cc(-c6n[nH]c7ccc(OC8(C)CC8)cc67)nc(C)n5)CC4)CC3)CC2)ccc2c1CN(C1CCC(=O)NC1=O)C2=O (some centres unmarked) [Compound 367, 3-[4-methoxy-1-oxo-5-(4-{[(1r,4r)-4-[(4-{2-methyl-6-[5-(1-methylcyclopropoxy)-1H-indazol-3-yl]pyrimidin-4-yl}piperazin-1-yl)methyl]cyclohexyl]oxy}piperidin-1-yl)-2,3-dihydro-1H-isoindol-2-yl]piperidine-2,6-dione]",DC50,[1],< 10 nM
same,Dmax,[2],50 to 70%
"CC1(Oc2ccc3[nH]nc(-c4ccnc(N5CCN(C[C@H]6CC[C@H](OC7CCN(c8ccc9c(c8F)CN(C8CCC(=O)NC8=O)C9=O)CC7)CC6)CC5)c4)c3c2)CC1 (some centres unmarked) [Compound 358, 3-[4-fluoro-1-oxo-5-(4-{[(1r,4r)-4-[(4-{4-[5-(1-methylcyclopropoxy)-1H-indazol-3-yl]pyridin-2-yl}piperazin-1-yl)methyl]cyclohexyl]oxy}piperidin-1-yl)-2,3-dihydro-1H-isoindol-2-yl]piperidine-2,6-dione]",DC50,[1],< 10 nM
same,Dmax,[2],50 to 70%
"CC1(Oc2cc3c(-c4cc(N5CCC(CN6CCN(CC7CCN(c8ccc9c(c8F)CN(C8CCC(=O)NC8=O)C9=O)CC7)CC6)CC5)ncn4)n[nH]c3cc2F)CC1 (centres unmarked) [Compound 186, 3-[4-fluoro-5-[4-[[4-[[1-[6-[6-fluoro-5-(1-methylcyclopropoxy)-1H-indazol-3-yl]pyrimidin-4-yl]-4-piperidyl]methyl]piperazin-1-yl]methyl]-1-piperidyl]-1-oxo-isoindolin-2-yl]piperidine-2,6-dione]",Dmax,"endogenous HiBit-tagged LRRK2, HEK293 cells, 24 hours, read-out: **Endogenous WT Dmax (%)",≥ 70%
same,DC50,"endogenous HiBit-tagged LRRK2, HEK293 cells, 24 hours, read-out: *Endogenous WT DC50",< 10 nM
"COc1c(N2CCC(CN3CCN(C(C)(C)C4CCN(c5cc(-c6n[nH]c7ccc(OC8(C)CC8)cc67)ncn5)CC4)CC3)CC2)ccc2c1CN(C1CCC(=O)NC1=O)C2=O (centres unmarked) [Compound 331, 3-{4-methoxy-5-[4-({4-[2-(1-{6-[5-(1-methylcyclopropoxy)-1H-indazol-3-yl]pyrimidin-4-yl}piperidin-4-yl)propan-2-yl]piperazin-1-yl}methyl)piperidin-1-yl]-1-oxo-2,3-dihydro-1H-isoindol-2-yl}piperidine-2,6-dione]",Dmax,[3],50 to 70%
same,DC50,[4],< 10 nM
"COc1c(C2CCN([C@H]3C[C@H](OC4CCN(c5cc(-c6[nH]nc7ccc(OC8(C)CC8)cc67)ncn5)CC4)C3)CC2)ccc2c1CN(C1CCC(=O)NC1=O)C2=O (some centres unmarked) [Compound 329, 3-(4-methoxy-1-oxo-5-{1-[(1r,3r)-3-[(1-{6-[5-(1-methylcyclopropoxy)-2H-indazol-3-yl]pyrimidin-4-yl}piperidin-4-yl)oxy]cyclobutyl]piperidin-4-yl}-2,3-dihydro-1H-isoindol-2-yl)piperidine-2,6-dione]",Dmax,[3],50 to 70%
same,DC50,[4],< 10 nM
"CC1(Oc2cc3c(-c4cc(N5CCC(CN6CCN(CC7CCN(c8ccc9c(c8F)CN(C8CCC(=O)NC8=O)C9=O)CC7)C(C)(C)C6)CC5)ncn4)n[nH]c3cc2F)CC1 (centres unmarked) [Compound 275, 3-{4-fluoro-5-[4-({4-[(1-{6-[6-fluoro-5-(1-methylcyclopropoxy)-1H-indazol-3-yl]pyrimidin-4-yl}piperidin-4-yl)methyl]-2,2-dimethylpiperazin-1-yl}methyl)piperidin-1-yl]-1-oxo-2,3-dihydro-1H-isoindol-2-yl}piperidine-2,6-dione]",Dmax,[3],50 to 70%
same,DC50,[4],< 10 nM
